Reference: patent US20230040081A1 (priority 2019, published 2023)

B1: vRNAP elongation scaffold (template DNA/non-template DNA/RNA) (mixed)
DNA 1: GACTTATGATCGGATAAGAGTCCAGCCAATGACAGATGCCTCATAGCC
DNA 2: GGCTATGAGGCATCCCATGCGTTGAGGACTCTTATCCGATCATAAGTC
RNA: GAGUUGUAAUAACAAGGGAAAUGUCAUUGGC
modifications: RNA 5'-triphosphate

Key:
[1] = system: viral RNA polymerase; assay: Potential inhibitors: Results Screen; type: biochemical; conditions: test concentration not given
Method: (§1) Compound stocks were prepared at a concentration of 1 mM in 65% DMSO, at a volume of 5 μL each.

[2] = system: viral RNA polymerase; assay: Potential inhibitors: Results Hit validation; type: biochemical; conditions: test concentration not given
Method: as §1

[3] = target: Vaccinia RNA polymerase core enzyme (Rpo147/Rpo132/Rpo35/Rpo30/Rpo22/Rpo19/Rpo18/Rpo7) (Vaccinia virus (GLV-1h439, Lister …, UniProt P07392;Q76ZP7;P24757;P21603;P68609;P68611;P04310;P68317 …)); assay: structure; conditions: tags: HA/FLAG C-terminal on Rpo132

Molecule	Results Screen Median Screen (% inhibition) [1] [% inhibition]	Results Hit validation Median (% inhibition) [2] [% inhibition]	binding result [3]
CC1(C)CCC[C@@]2(C)[C@H]1[C@H](O)C=C1COC(=O)[C@]12O (racemic) [AD153413-10_B3]	60.9	43.3	
OC[C@@H]1O[C@H](Oc2ccc(O)c3cccc(O)c23)[C@@H](O)[C@H](O)[C@H]1O [AD153413-14_C5]	63.3	52.6	
CC(=O)OC1CC2C(COC(=O)CC(C)C)=CO[C@H](OC(=O)CC(C)C)C2C12CO2 (some centres unmarked) [AD153413-09_A3]	89.7	55.9	
COc1cc(-c2cc(=O)c3c(O)c(C4OC(CO)C(O)C(OC5OC(CO)C(O)C(O)C5OC5OC(CO)C(O)C(O)C5O)C4OC(=O)/C=C/c4ccc(O)c(O)c4)c(O)cc3o2)ccc1O (centres unmarked) [AD153413-17_A4]	69.6	52.3	
COc1cc(C2OC(c3cc(OC)c(OC)c(OC)c3)C(C)C2C)cc(OC)c1OC (centres unmarked) [AD153413-14_E9]	67.1	43.8	
CCC(C)C(=O)OC1CC(C)C=C2C=CC(C)C(CCC(O)CC(O)CC(=O)O)C21 (centres unmarked) [AD153413-16_G9]	87.4	64.7	
CCC(C)C(=O)O[C@H]1CCC=C2C=C[C@H](C)[C@H](CC[C@@H](O)C[C@@H](O)CC(=O)O)[C@H]21 (some centres unmarked) [AD153413-09_E2]	90.3	60.5	
CC(=O)O[C@H]1C[C@@H](O)[C@]23COC(O)[C@@]1(C)C2C[C@H](O)[C@@]1(C)C3C(=O)[C@@H](OC(C)=O)[C@]2(C)[C@@H](c3ccoc3)C[C@@H]3O[C@@]321 (some centres unmarked) [AD153413-19_D3]	71.8	41.6	
COc1cc(O)c2c(c1)C(O)C(C)OC2=O (centres unmarked) [AD153413-16_B4]	72.5	53.6	
CC1=C[C@H](C/C(C)=C/COc2c3occc3cc3ccc(=O)oc23)OC1=O [AD153413-25_H9]	79.1	51.1	
CC1CCC2(C)CCC3(C)C(=CCC4C5(C)CCC(O)C(C)(C(=O)O)C5CCC43C)C2C1C (centres unmarked) [AD153413-25_A7]	85.9	70	
CC(C)C1NC(=O)C2CCCN2C1=O (centres unmarked) [AD153413-12_C11]	61.7	44.2	
C[C@]1(C(=O)O)CC[C@@]2(C)CC[C@@]3(C)C4=CC(=O)c5cc(O)c(O)cc5[C@@]4(C)CC[C@]3(C)[C@H]2C1 [AD153413-04_H6]	77	52.2	
O=C(CCc1ccc(O)cc1)CC(CCc1ccc(O)cc1)OC1O[C@@H](COC(=O)/C=C/c2ccc(O)cc2)[C@H](O)[C@@H](O)[C@@H]1O (some centres unmarked) [AD153413-07_H11]	70	45.2	
CCCCCCCC/C(=C/CC(=O)O)C(=O)O [AD153413-16_C3]	84.3	40.5	
CC(O)CC1CCC(C(C)C(=O)OC(C)CC2CCC(C(C)C(=O)O)O2)O1 (centres unmarked) [AD153413-16_A3]	83	44.5	
C=C(C)C1=C[C@@]2(C)C(=CC1=O)CC[C@@H](O)[C@@H]2C [AD153413-10_F2]	80	50.8	
NC(=O)c1c[nH]c(Cc2ccccc2)cc1=O [AD153413-06_B9]	80	42.9	
COc1ccc(CCC(=O)O)cc1 [AD153413-03_F11]	70.6	41.8	
COc1cc(O)c2c(=O)c(O[C@H]3O[C@H](C)[C@@H](O)[C@H](O)[C@@H]3O)c(-c3ccc(O)cc3)oc2c1O [AD153413-05_B3]	72.4	43.6	
B1			binds
